From patent publication US11149037B2, “Pyrazole MAGL inhibitors” (H. Lundbeck A/S, priority 2017, dated 2021) come the findings set out here.

Some results are limits rather than exact numbers.

In assay [1] the target is T1, MAGL (Mus musculus (Mouse), UniProt O35678). Put plainly: Mouse brain proteomes from inhibitor treated mice (oral gavage, sacrificed 4 h after administration). The format is in vivo. The note with it: 5 mg/kg oral gavage. Here is the method:
(§1) Preparation of Mouse Brain Proteomes from Inhibitor Treated Mice.
(§2) Inhibitors were administered to wild-type C57B1/6J by oral gavage in a vehicle of polyethylene glycol. Each animal was sacrificed 4 h following administration and brain proteomes were prepared and analyzed according to previously established methods (See Niphakis, M. J., et al. (2011) ACS Chem. Neurosci. and Long, J. Z., et al. Nat. Chem. Biol. 5:37-44).

The target in assay [2] is T2, FAAH (Mus musculus (Mouse), UniProt O08914). The description is as above. The format is in vivo. The following applies: 5 mg/kg oral gavage. Here is the method:
as §1, §2

For assay [3], the target named is T1, MAGL. Put plainly: In vitro competitive activity-based protein profiling, mouse proteomes (brain membrane fraction or cell lysates). The assay is classed as biochemical. The note with it: mouse proteome, read-out: MAGL % inh. 1 μM (mouse). In short, it runs like this:
(§3)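 Activity of MAGL and FAAH was quantified from fluorescent gel band intensities. Beforehand, inhibitors at several concentrations competed against subsequent probe labelling (FP-Rh, JW912 or HT-01) in species-matched proteomes, each step 30 min at 37° C.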

Assay [4] has as its target T2, FAAH. Described as above. The format is biochemical. The note with it: mouse proteome, read-out: FAAH % inh. 1 μM (mouse). In short, it runs like this: as §3
The target of assay [5] is MAGL (Homo sapiens (Human), UniProt Q99685). The assay can be described thus: In vitro competitive activity-based protein profiling, human proteomes (prefrontal cortex or PC3 cell membrane fractions). The assay is classed as biochemical. The note with it: human proteome; for inhibition at 1 µM: read-out: MAGL % inh. 1 μM (human). In short, it runs like this:
as §3

For assay [6], the target named is FAAH (Homo sapiens (Human), UniProt O00519). Described as above. The following applies: human proteome; for inhibition at 1 µM: read-out: FAAH % inh. 1 μM (human). The format is biochemical. In short, it runs like this:
as §3

Chain of MAGL (Homo sapiens (Human), UniProt Q99685) (Q99685 whole entry): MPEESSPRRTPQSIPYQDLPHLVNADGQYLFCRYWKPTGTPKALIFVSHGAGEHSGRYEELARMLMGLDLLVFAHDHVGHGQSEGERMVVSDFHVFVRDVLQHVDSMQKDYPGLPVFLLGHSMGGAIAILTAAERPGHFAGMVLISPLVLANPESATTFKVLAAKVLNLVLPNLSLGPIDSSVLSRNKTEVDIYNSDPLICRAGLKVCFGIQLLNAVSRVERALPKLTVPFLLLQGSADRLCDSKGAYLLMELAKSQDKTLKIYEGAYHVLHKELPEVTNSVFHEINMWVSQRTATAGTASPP
T2 sequence (O08914 whole entry): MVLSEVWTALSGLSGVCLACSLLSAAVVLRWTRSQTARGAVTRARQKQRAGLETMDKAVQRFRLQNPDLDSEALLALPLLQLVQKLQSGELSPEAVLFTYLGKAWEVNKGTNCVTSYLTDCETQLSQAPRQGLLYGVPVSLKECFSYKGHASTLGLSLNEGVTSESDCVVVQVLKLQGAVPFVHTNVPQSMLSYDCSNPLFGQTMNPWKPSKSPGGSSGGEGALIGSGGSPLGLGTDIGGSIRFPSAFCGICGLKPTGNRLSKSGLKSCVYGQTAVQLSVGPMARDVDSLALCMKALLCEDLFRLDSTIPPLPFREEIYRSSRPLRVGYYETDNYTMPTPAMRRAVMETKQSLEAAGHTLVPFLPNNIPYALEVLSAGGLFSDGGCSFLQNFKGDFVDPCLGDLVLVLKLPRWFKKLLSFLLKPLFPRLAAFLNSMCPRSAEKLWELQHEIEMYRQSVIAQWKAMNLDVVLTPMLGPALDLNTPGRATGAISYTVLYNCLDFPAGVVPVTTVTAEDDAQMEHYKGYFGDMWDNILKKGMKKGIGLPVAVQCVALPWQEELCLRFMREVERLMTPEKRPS
Chain of FAAH (Homo sapiens (Human), UniProt O00519) (O00519 whole entry): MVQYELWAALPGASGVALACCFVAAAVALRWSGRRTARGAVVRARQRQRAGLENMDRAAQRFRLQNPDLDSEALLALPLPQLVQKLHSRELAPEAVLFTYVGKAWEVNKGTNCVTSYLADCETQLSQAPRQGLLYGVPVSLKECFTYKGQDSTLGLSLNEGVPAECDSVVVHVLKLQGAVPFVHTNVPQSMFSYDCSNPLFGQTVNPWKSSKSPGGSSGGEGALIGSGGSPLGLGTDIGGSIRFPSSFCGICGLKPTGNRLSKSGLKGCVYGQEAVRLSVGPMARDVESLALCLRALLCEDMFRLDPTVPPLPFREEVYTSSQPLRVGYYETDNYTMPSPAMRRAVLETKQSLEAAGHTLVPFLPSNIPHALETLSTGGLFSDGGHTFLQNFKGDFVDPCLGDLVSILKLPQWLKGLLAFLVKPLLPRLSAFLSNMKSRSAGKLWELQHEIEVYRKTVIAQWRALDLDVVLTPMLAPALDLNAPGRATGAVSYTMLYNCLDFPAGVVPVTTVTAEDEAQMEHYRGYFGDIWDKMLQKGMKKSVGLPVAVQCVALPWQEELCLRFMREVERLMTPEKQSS
T1 sequence (O35678 whole entry): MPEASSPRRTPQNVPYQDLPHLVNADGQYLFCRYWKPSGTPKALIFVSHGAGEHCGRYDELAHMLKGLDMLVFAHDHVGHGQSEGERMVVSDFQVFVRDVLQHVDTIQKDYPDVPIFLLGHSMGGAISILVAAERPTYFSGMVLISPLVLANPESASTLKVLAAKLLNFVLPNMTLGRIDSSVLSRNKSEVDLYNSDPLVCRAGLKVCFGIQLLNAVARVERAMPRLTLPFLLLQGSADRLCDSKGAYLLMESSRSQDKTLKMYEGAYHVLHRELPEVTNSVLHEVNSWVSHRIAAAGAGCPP

`CC(=O)Nc1ccn(C(=O)N2CCN(Cc3ccc(-c4ccccc4)cc3C)CC2)n1` [Example 131, N-(1-(4-((3-Methyl-[1,1′-biphenyl]-4-yl)methyl)piperazine-1-carbonyl)-1H-pyrazol-3-yl)acetamide]: the “MAGL % inh. 5 mg/kg (mouse)” value at MAGL [1] is recorded as “A (% inhibition is greater than or equal to 75%)”. The “FAAH % inh. 5 mg/kg (mouse)” value on FAAH [2] is “A (% inhibition is greater than or equal to 75%)”. Moreover, the inhibition at 1 µM at MAGL [3], at FAAH [4], at MAGL [5] and at FAAH [6] was over 75% throughout. Further, the figures for the IC50 on MAGL [5] and on FAAH [6] were under 0.1 µM and 1 to 10 µM, respectively.

`CC(=O)Nc1ccn(C(=O)N2CCC(C)(N(C)Cc3cc(C(F)(F)F)cc(C4(C(=O)O)CCCC4)c3)CC2)n1` [Example 132, 1-(3-(((1-(3-Acetamido-1H-pyrazole-1-carbonyl)-4-methylpiperidin-4-yl)(methyl)amino)methyl)-5-(trifluoromethyl)phenyl)cyclopentane-1-carboxylic acid]: the “MAGL % inh. 5 mg/kg (mouse)” value at MAGL [1] is “D (% inhibition is greater than or equal to 0% and less than 25%)”. Besides, on FAAH [2], the “FAAH % inh. 5 mg/kg (mouse)” value was “D (% inhibition is greater than or equal to 0% and less than 25%)”. Moreover, the inhibition at 1 µM on MAGL [3] was over 75%; on FAAH [4], 0 to 25%; on MAGL [5], over 75%; on FAAH [6], 0 to 25%. Besides, the concentration for half-maximal inhibition (IC50) was under 0.1 µM at MAGL [5] and 1 to 10 µM on FAAH [6].

On to `C[C@@H]1CN(C(=O)n2ccc(NS(C)(=O)=O)n2)CCN1Cc1ccc(Cl)c(N2CC3COCC3C2)c1` (stereo partly drawn) [Example 133, N-(1-((3R)-4-(4-Chloro-3-(tetrahydro-1H-furo[3,4-c]pyrrol-5(3H)-yl)benzyl)-3-methylpiperazine-1-carbonyl)-1H-pyrazol-3-yl)methanesulfonamide], for which the “MAGL % inh. 5 mg/kg (mouse)” value at MAGL [1] is “D (% inhibition is greater than or equal to 0% and less than 25%)”. Moreover, the “FAAH % inh. 5 mg/kg (mouse)” value on FAAH [2] is “D (% inhibition is greater than or equal to 0% and less than 25%)”. Moreover, the inhibition at 1 µM at MAGL [3] is over 75%; at FAAH [4] it was 0 to 25%; on MAGL [5], over 75%; on FAAH [6], 0 to 25%.

With `CS(=O)(=O)Nc1ccn(C(=O)N2CC[C@H](Oc3ccc(C(F)(F)F)c(N4CCC(F)CC4)c3)[C@H](F)C2)n1` [Example 134, N-(1-((3R,4S)-3-Fluoro-4-(3-(4-fluoropiperidin-1-yl)-4-(trifluoromethyl)phenoxy)piperidine-1-carbonyl)-1H-pyrazol-3-yl)methanesulfonamide], on MAGL [1], the “MAGL % inh. 5 mg/kg (mouse)” value is “C (% inhibition is greater than or equal to 25% and less than 50%)”. Besides, at FAAH [2], the “FAAH % inh. 5 mg/kg (mouse)” value is “D (% inhibition is greater than or equal to 0% and less than 25%)”. In addition, the inhibition at 1 µM is over 75% at MAGL [3], 0 to 25% at FAAH [4], over 75% on MAGL [5] and 0 to 25% on FAAH [6].

Take `C[C@H]1CN(Cc2ccc(Cl)c(N3CC4COCC4C3)c2)CCN1C(=O)n1ccc(NS(C)(=O)=O)n1` (stereo partly drawn) [Example 135, N-(1-((2S)-4-(4-Chloro-3-(tetrahydro-1H-furo[3,4-c]pyrrol-5(3H)-yl)benzyl)-2-methylpiperazine-1-carbonyl)-1H-pyrazol-3-yl)methanesulfonamide]: the “MAGL % inh. 5 mg/kg (mouse)” value at MAGL [1] is “D (% inhibition is greater than or equal to 0% and less than 25%)”. Besides, at FAAH [2], the “FAAH % inh. 5 mg/kg (mouse)” value was “D (% inhibition is greater than or equal to 0% and less than 25%)”. The inhibition at 1 µM was over 75% on MAGL [3], 0 to 25% on FAAH [4], over 75% on MAGL [5] and 0 to 25% at FAAH [6].

As to `C[C@H]1CN(Cc2ccc(Cl)c(N3CCC(F)CC3)c2)CCN1C(=O)n1ccc(NS(C)(=O)=O)n1` [Example 136, (S)-N-(1-(4-(4-Chloro-3-(4-fluoropiperidin-1-yl)benzyl)-2-methylpiperazine-1-carbonyl)-1H-pyrazol-3-yl)methanesulfonamide], the “MAGL % inh. 5 mg/kg (mouse)” value at MAGL [1] is given as “A (% inhibition is greater than or equal to 75%)”. Further, on FAAH [2], the “FAAH % inh. 5 mg/kg (mouse)” value was “D (% inhibition is greater than or equal to 0% and less than 25%)”. Besides, the inhibition at 1 µM was over 75% at MAGL [3], 0 to 25% at FAAH [4], over 75% at MAGL [5] and 0 to 25% at FAAH [6].

For the compound `C[C@@H]1CN(Cc2ccc(Cl)c(N3CC4COCC4C3)c2)CCN1C(=O)n1ccc(NS(C)(=O)=O)n1` (stereo partly drawn) [Example 137, N-(1-((2R)-4-(4-Chloro-3-(tetrahydro-1H-furo[3,4-c]pyrrol-5(3H)-yl)benzyl)-2-methylpiperazine-1-carbonyl)-1H-pyrazol-3-yl)methanesulfonamide], the “MAGL % inh. 5 mg/kg (mouse)” value on MAGL [1] was “D (% inhibition is greater than or equal to 0% and less than 25%)”. Also, the “FAAH % inh. 5 mg/kg (mouse)” value on FAAH [2] is “D (% inhibition is greater than or equal to 0% and less than 25%)”. Also, the inhibition at 1 µM at MAGL [3] was over 75%; on FAAH [4], 0 to 25%; on MAGL [5], over 75%; at FAAH [6], 0 to 25%.

For `C[C@@H]1CN(C(=O)n2ccc(NS(C)(=O)=O)n2)CCN1Cc1ccc(Cl)c(N2CCC(F)CC2)c1` [Example 138, (R)-N-(1-(4-(4-Chloro-3-(4-fluoropiperidin-1-yl)benzyl)-3-methylpiperazine-1-carbonyl)-1H-pyrazol-3-yl)methanesulfonamide], at MAGL [1], the “MAGL % inh. 5 mg/kg (mouse)” value is reported as “A (% inhibition is greater than or equal to 75%)”. In addition, the “FAAH % inh. 5 mg/kg (mouse)” value on FAAH [2] is “D (% inhibition is greater than or equal to 0% and less than 25%)”. Moreover, the inhibition at 1 µM is over 75% at MAGL [3], 0 to 25% at FAAH [4], over 75% at MAGL [5] and 0 to 25% at FAAH [6].

Take `C[C@H](c1ccc(Cl)c(N2CCC(F)CC2)c1)N1CCN(C(=O)n2ccc(NS(C)(=O)=O)n2)CC1` [Example 139, (R)-N-(1-(4-(1-(4-Chloro-3-(4-fluoropiperidin-1-yl)phenyl)ethyl)piperazine-1-carbonyl)-1H-pyrazol-3-yl)methanesulfonamide]: the “MAGL % inh. 5 mg/kg (mouse)” value on MAGL [1] was “D (% inhibition is greater than or equal to 0% and less than 25%)”. Moreover, at FAAH [2], the “FAAH % inh. 5 mg/kg (mouse)” value was “D (% inhibition is greater than or equal to 0% and less than 25%)”. Also, the inhibition at 1 µM at MAGL [3] was over 75%; on FAAH [4], 0 to 25%; on MAGL [5], over 75%; on FAAH [6], 0 to 25%. Moreover, the IC50 at MAGL [5] is under 0.1 µM; on FAAH [6], 1 to 10 µM.

Take `CC1CN(C(=O)n2ccc(NS(C)(=O)=O)n2)CCN1Cc1ccc(C(F)(F)F)c(N2CCC(F)CC2)c1` (stereo not drawn) [Example 141, N-(1-(4-(3-(4-Fluoropiperidin-1-yl)-4-(trifluoromethyl)benzyl)-3-methylpiperazine-1-carbonyl)-1H-pyrazol-3-yl)methanesulfonamide]: at MAGL [1], the “MAGL % inh. 5 mg/kg (mouse)” value was “A (% inhibition is greater than or equal to 75%)”. Also, the “FAAH % inh. 5 mg/kg (mouse)” value on FAAH [2] was “D (% inhibition is greater than or equal to 0% and less than 25%)”. In addition, the inhibition at 1 µM on MAGL [3] was over 75%; on FAAH [4], 0 to 25%; at MAGL [5], over 75%; at FAAH [6] it was 0 to 25%.

Take `C[C@H]1CN(C(=O)n2ccc(NS(C)(=O)=O)n2)CCN1Cc1ccc(Cl)c(N2CC3COCC3C2)c1` (stereo partly drawn) [Example 143, N-(1-((3S)-4-(4-Chloro-3-(tetrahydro-1H-furo[3,4-c]pyrrol-5(3H)-yl)benzyl)-3-methylpiperazine-1-carbonyl)-1H-pyrazol-3-yl)methanesulfonamide]: at MAGL [1], the “MAGL % inh. 5 mg/kg (mouse)” value is “D (% inhibition is greater than or equal to 0% and less than 25%)”. The “FAAH % inh. 5 mg/kg (mouse)” value on FAAH [2] is “D (% inhibition is greater than or equal to 0% and less than 25%)”. The inhibition at 1 µM was over 75% on MAGL [3], 0 to 25% at FAAH [4], over 75% at MAGL [5] and 0 to 25% on FAAH [6].

On to `C[C@H]1CN(C(=O)n2ccc(NS(C)(=O)=O)n2)CCN1Cc1ccc(Cl)c(N2CCC(F)CC2)c1` [Example 148, (S)-N-(1-(4-(4-Chloro-3-(4-fluoropiperidin-1-yl)benzyl)-3-methylpiperazine-1-carbonyl)-1H-pyrazol-3-yl)methanesulfonamide], for which, at MAGL [1], the “MAGL % inh. 5 mg/kg (mouse)” value was “A (% inhibition is greater than or equal to 75%)”. Moreover, the “FAAH % inh. 5 mg/kg (mouse)” value on FAAH [2] was “D (% inhibition is greater than or equal to 0% and less than 25%)”. In addition, the inhibition at 1 µM on MAGL [3] is over 75%; at FAAH [4] it was 0 to 25%; on MAGL [5], over 75%; at FAAH [6] it was 0 to 25%.
